Blank lines part the entries; values can stand above or below the compound they belong to.
What was measured:
[1] = The drug is tested on Bifidobacterium longum subsp. Infantis strain: CCUG52486 for biotransformation. The drug concentrations were measured before and after a 12-h incubation by liquid-chromatography-coupled mass spectrometry (LC–MS); conditions: 2 µM
[2] = enterocloster bolteae, 12 h, 2 µM
Description: The drug is tested on Clostridium bolteae strain: ATCCBAA-613 for biotransformation. The drug concentrations were measured before and after a 12-h incubation by liquid-chromatography-coupled mass spectrometry (LC–MS)

[3] = The drug is tested on Collinsella aerofaciens strain: ATCC25986 for biotransformation. The drug concentrations were measured before and after a 12-h incubation by liquid-chromatography-coupled mass spectrometry (LC–MS); conditions: 2 µM
[4] = The drug is tested on Eubacterium hallii strain: DSM3353 for biotransformation. The drug concentrations were measured before and after a 12-h incubation by liquid-chromatography-coupled mass spectrometry (LC–MS); conditions: anaerobutyricum hallii, 2 µM
[5] = The drug is tested on Bacteroides sp. WH2 strain: WH2 for biotransformation. The drug concentrations were measured before and after a 12-h incubation by liquid-chromatography-coupled mass spectrometry (LC–MS); conditions: bacteroides sp. wh2, 12 h, 2 µM
[6] = The drug is tested on Clostridium symbiosum strain: ATCC14940 for biotransformation. The drug concentrations were measured before and after a 12-h incubation by liquid-chromatography-coupled mass spectrometry (LC–MS); conditions: 2 µM
[7] = bacteroides thetaiotaomicron, 12 h, 2 µM
Description: The drug is tested on Bacteroides thetaiotaomicron strain: VPI-5482 for biotransformation. The drug concentrations were measured before and after a 12-h incubation by liquid-chromatography-coupled mass spectrometry (LC–MS)

[8] = The drug is tested on Providencia rettgeri strain: DSM1131 for biotransformation. The drug concentrations were measured before and after a 12-h incubation by liquid-chromatography-coupled mass spectrometry (LC–MS); format: ADME; design: dose 2 uM, timepoint 0 vs 12 hours; conditions: 2 µM
[9] = The drug is tested on Clostridium scindens strain: ATCC35704 for biotransformation. The drug concentrations were measured before and after a 12-h incubation by liquid-chromatography-coupled mass spectrometry (LC–MS); conditions: 2 µM
[10] = bifidobacterium adolescentis, 12 h, 2 µM
Description: The drug is tested on Bifidobacterium adolescentis strain: ATCC 15703 for biotransformation. The drug concentrations were measured before and after a 12-h incubation by liquid-chromatography-coupled mass spectrometry (LC–MS)

[11] = The drug is tested on Enterobacter cancerogenus strain: ATCC35316 for biotransformation. The drug concentrations were measured before and after a 12-h incubation by liquid-chromatography-coupled mass spectrometry (LC–MS); conditions: 2 µM
[12] = parabacteroides distasonis, 12 h, 2 µM
Description: The drug is tested on Parabacteroides distasonis strain: ATCC8503 for biotransformation. The drug concentrations were measured before and after a 12-h incubation by liquid-chromatography-coupled mass spectrometry (LC–MS)

[13] = bacteroides fragilis, 12 h, 2 µM
Description: The drug is tested on Bacteroides fragilis strain: 3397 (T10) for biotransformation. The drug concentrations were measured before and after a 12-h incubation by liquid-chromatography-coupled mass spectrometry (LC–MS)

[14] = The drug is tested on Bacteroides pectinophilus strain: ATCC43243 for biotransformation. The drug concentrations were measured before and after a 12-h incubation by liquid-chromatography-coupled mass spectrometry (LC–MS); conditions: 2 µM
[15] = The drug is tested on Blautia hansenii strain: DSM20583 for biotransformation. The drug concentrations were measured before and after a 12-h incubation by liquid-chromatography-coupled mass spectrometry (LC–MS); conditions: 2 µM
[16] = parabacteroides johnsonii, 12 h, 2 µM
Description: The drug is tested on Parabacteroides johnsonii strain: DSM18315 for biotransformation. The drug concentrations were measured before and after a 12-h incubation by liquid-chromatography-coupled mass spectrometry (LC–MS)

[17] = The drug is tested on Escherichia coli strain: BW25113 for biotransformation. The drug concentrations were measured before and after a 12-h incubation by liquid-chromatography-coupled mass spectrometry (LC–MS); conditions: 2 µM
[18] = The drug is tested on Clostridium ramosum strain: DSM1402 for biotransformation. The drug concentrations were measured before and after a 12-h incubation by liquid-chromatography-coupled mass spectrometry (LC–MS); conditions: thomasclavelia ramosa, 2 µM
[19] = The drug is tested on Ruminococcus torques strain: ATCC27756 for biotransformation. The drug concentrations were measured before and after a 12-h incubation by liquid-chromatography-coupled mass spectrometry (LC–MS); format: ADME; design: dose 2 uM, timepoint 0 vs 12 hours; conditions: 2 µM
[20] = The drug is tested on Providencia stuartii strain: ATCC25827 for biotransformation. The drug concentrations were measured before and after a 12-h incubation by liquid-chromatography-coupled mass spectrometry (LC–MS); conditions: 2 µM

- Bacterial Biotransformation [16]: Compound metabolized
- Bacterial Biotransformation [2]: Compound metabolized
- Bacterial Biotransformation [3]: Compound metabolized
- Bacterial Biotransformation [4]: Compound metabolized
- Bacterial Biotransformation [5]: Compound metabolized
- Bacterial Biotransformation [6]: Compound metabolized
- Bacterial Biotransformation [7]: Compound metabolized
- Bacterial Biotransformation [8]: Compound NOT metabolized
- Bacterial Biotransformation [9]: Compound metabolized
- Bacterial Biotransformation [18]: Compound metabolized
- Bacterial Biotransformation [12]: Compound metabolized
- Bacterial Biotransformation [13]: Compound metabolized
- Bacterial Biotransformation [19]: Compound metabolized
- Bacterial Biotransformation [20]: Compound NOT metabolized
- Bacterial Biotransformation [14]: Compound NOT metabolized
- Bacterial Biotransformation [15]: Compound metabolized
Structure (SMILES): Nc1ccc(/N=N/c2ccccc2)c(N)n1 [PHENAZOPYRIDINE]

- Bacterial Biotransformation [16]: Compound metabolized
- Bacterial Biotransformation [1]: Compound metabolized
- Bacterial Biotransformation [17]: Compound NOT metabolized
- Bacterial Biotransformation [2]: Compound NOT metabolized
- Bacterial Biotransformation [3]: Compound NOT metabolized
- Bacterial Biotransformation [4]: Compound NOT metabolized
- Bacterial Biotransformation [5]: Compound metabolized
- Bacterial Biotransformation [6]: Compound NOT metabolized
- Bacterial Biotransformation [7]: Compound metabolized
- Bacterial Biotransformation [8]: Compound NOT metabolized
- Bacterial Biotransformation [10]: Compound metabolized
- Bacterial Biotransformation [18]: Compound NOT metabolized
- Bacterial Biotransformation [12]: Compound metabolized
- Bacterial Biotransformation [20]: Compound NOT metabolized
- Bacterial Biotransformation [14]: Compound metabolized
- Bacterial Biotransformation [15]: Compound metabolized
Structure (SMILES): CC(=O)SCC(Cc1ccccc1)C(=O)NCC(=O)OCc1ccccc1 (stereo not drawn) [RACECADOTRIL]

- Bacterial Biotransformation [16]: Compound metabolized
- Bacterial Biotransformation [1]: Compound NOT metabolized
- Bacterial Biotransformation [2]: Compound metabolized
- Bacterial Biotransformation [3]: Compound metabolized
- Bacterial Biotransformation [4]: Compound metabolized
- Bacterial Biotransformation [5]: Compound NOT metabolized
- Bacterial Biotransformation [6]: Compound metabolized
- Bacterial Biotransformation [8]: Compound NOT metabolized
- Bacterial Biotransformation [9]: Compound NOT metabolized
- Bacterial Biotransformation [10]: Compound NOT metabolized
- Bacterial Biotransformation [11]: Compound NOT metabolized
- Bacterial Biotransformation [12]: Compound metabolized
- Bacterial Biotransformation [19]: Compound NOT metabolized
- Bacterial Biotransformation [20]: Compound NOT metabolized
- Bacterial Biotransformation [14]: Compound NOT metabolized
- Bacterial Biotransformation [15]: Compound NOT metabolized
Structure (SMILES): CCOc1cc(CC(=O)N[C@@H](CC(C)C)c2ccccc2N2CCCCC2)ccc1C(=O)O [REPAGLINIDE]

- Bacterial Biotransformation [16]: Compound metabolized
- Bacterial Biotransformation [1]: Compound metabolized
- Bacterial Biotransformation [17]: Compound metabolized
- Bacterial Biotransformation [2]: Compound metabolized
- Bacterial Biotransformation [3]: Compound metabolized
- Bacterial Biotransformation [4]: Compound metabolized
- Bacterial Biotransformation [5]: Compound metabolized
- Bacterial Biotransformation [6]: Compound metabolized
- Bacterial Biotransformation [7]: Compound metabolized
- Bacterial Biotransformation [8]: Compound NOT metabolized
- Bacterial Biotransformation [9]: Compound metabolized
- Bacterial Biotransformation [10]: Compound metabolized
- Bacterial Biotransformation [18]: Compound metabolized
- Bacterial Biotransformation [12]: Compound metabolized
- Bacterial Biotransformation [13]: Compound metabolized
- Bacterial Biotransformation [19]: Compound metabolized
- Bacterial Biotransformation [14]: Compound NOT metabolized
- Bacterial Biotransformation [15]: Compound metabolized
Structure (SMILES): O=C(O)c1cc(/N=N/c2ccc(S(=O)(=O)Nc3ccccn3)cc2)ccc1O [SULFASALAZINE]

More lines, now with the values behind:

Structure (SMILES): NS(=O)(=O)c1cc2c(cc1Cl)N=C(CSCc1ccccc1)NS2(=O)=O [BENZTHIAZIDE]
- Bacterial Biotransformation [1]: Compound NOT metabolized
- Bacterial Biotransformation [2]: Compound NOT metabolized
- Bacterial Biotransformation [3]: Compound NOT metabolized
- Bacterial Biotransformation [4]: Compound NOT metabolized
- Bacterial Biotransformation [5]: Compound NOT metabolized
- Bacterial Biotransformation [6]: Compound NOT metabolized
- Bacterial Biotransformation [7]: Compound NOT metabolized
- Bacterial Biotransformation [8]: Compound NOT metabolized
- Bacterial Biotransformation [9]: Compound NOT metabolized
- Bacterial Biotransformation [10]: Compound NOT metabolized
- Bacterial Biotransformation [11]: Compound NOT metabolized
- Bacterial Biotransformation [12]: Compound NOT metabolized
- Bacterial Biotransformation [13]: Compound NOT metabolized
- Bacterial Biotransformation [14]: Compound NOT metabolized
- Bacterial Biotransformation [15]: Compound metabolized

Structure (SMILES): CN1CCC[C@@H]1CCO[C@](C)(c1ccccc1)c1ccc(Cl)cc1.O=C(O)/C=C/C(=O)O [CLEMASTINE FUMARATE]
- Bacterial Biotransformation [16]: Compound NOT metabolized
- Bacterial Biotransformation [1]: Compound NOT metabolized
- Bacterial Biotransformation [17]: Compound metabolized
- Bacterial Biotransformation [2]: Compound NOT metabolized
- Bacterial Biotransformation [3]: Compound NOT metabolized
- Bacterial Biotransformation [4]: Compound NOT metabolized
- Bacterial Biotransformation [6]: Compound NOT metabolized
- Bacterial Biotransformation [7]: Compound NOT metabolized
- Bacterial Biotransformation [8]: Compound metabolized
- Bacterial Biotransformation [9]: Compound NOT metabolized
- Bacterial Biotransformation [18]: Compound NOT metabolized
- Bacterial Biotransformation [12]: Compound metabolized
- Bacterial Biotransformation [13]: Compound metabolized
- Bacterial Biotransformation [19]: Compound NOT metabolized
- Bacterial Biotransformation [20]: Compound NOT metabolized
- Bacterial Biotransformation [14]: Compound metabolized
- Bacterial Biotransformation [15]: Compound metabolized

Structure (SMILES): COc1cc2c(c(OC)c1OC)-c1ccc(OC)c(=O)cc1[C@@H](NC(C)=O)CC2 [COLCHICINE]
- Bacterial Biotransformation [16]: Compound metabolized
- Bacterial Biotransformation [1]: Compound NOT metabolized
- Bacterial Biotransformation [2]: Compound NOT metabolized
- Bacterial Biotransformation [3]: Compound NOT metabolized
- Bacterial Biotransformation [4]: Compound NOT metabolized
- Bacterial Biotransformation [6]: Compound metabolized
- Bacterial Biotransformation [7]: Compound metabolized
- Bacterial Biotransformation [8]: Compound NOT metabolized
- Bacterial Biotransformation [9]: Compound NOT metabolized
- Bacterial Biotransformation [10]: Compound NOT metabolized
- Bacterial Biotransformation [18]: Compound NOT metabolized
- Bacterial Biotransformation [12]: Compound metabolized
- Bacterial Biotransformation [13]: Compound metabolized
- Bacterial Biotransformation [19]: Compound NOT metabolized
- Bacterial Biotransformation [20]: Compound NOT metabolized
- Bacterial Biotransformation [15]: Compound metabolized

Structure (SMILES): CC(=O)O[C@]1(C(C)=O)CC[C@H]2[C@@H]3C=C(Cl)C4=CC(=O)[C@@H]5C[C@@H]5[C@]4(C)[C@H]3CC[C@@]21C [CYPROTERONE ACETATE]
- Bacterial Biotransformation [16]: Compound metabolized
- Bacterial Biotransformation [1]: Compound NOT metabolized
- Bacterial Biotransformation [17]: Compound metabolized
- Bacterial Biotransformation [2]: Compound NOT metabolized
- Bacterial Biotransformation [3]: Compound metabolized
- Bacterial Biotransformation [4]: Compound NOT metabolized
- Bacterial Biotransformation [5]: Compound NOT metabolized
- Bacterial Biotransformation [6]: Compound NOT metabolized
- Bacterial Biotransformation [8]: Compound NOT metabolized
- Bacterial Biotransformation [9]: Compound metabolized
- Bacterial Biotransformation [10]: Compound NOT metabolized
- Bacterial Biotransformation [18]: Compound NOT metabolized
- Bacterial Biotransformation [12]: Compound metabolized
- Bacterial Biotransformation [19]: Compound NOT metabolized
- Bacterial Biotransformation [14]: Compound metabolized
- Bacterial Biotransformation [15]: Compound metabolized

Structure (SMILES): CC(=O)Nc1ccc(OC(C)=O)cc1 [DIACETAMATE]
- Bacterial Biotransformation [16]: Compound metabolized
- Bacterial Biotransformation [1]: Compound metabolized
- Bacterial Biotransformation [2]: Compound metabolized
- Bacterial Biotransformation [3]: Compound metabolized
- Bacterial Biotransformation [4]: Compound metabolized
- Bacterial Biotransformation [5]: Compound metabolized
- Bacterial Biotransformation [6]: Compound metabolized
- Bacterial Biotransformation [7]: Compound metabolized
- Bacterial Biotransformation [8]: Compound metabolized
- Bacterial Biotransformation [9]: Compound metabolized
- Bacterial Biotransformation [10]: Compound metabolized
- Bacterial Biotransformation [18]: Compound metabolized
- Bacterial Biotransformation [12]: Compound metabolized
- Bacterial Biotransformation [13]: Compound metabolized
- Bacterial Biotransformation [19]: Compound metabolized
- Bacterial Biotransformation [20]: Compound metabolized
- Bacterial Biotransformation [14]: Compound metabolized
- Bacterial Biotransformation [15]: Compound NOT metabolized
